Reference: ChEMBL document CHEMBL5579833, “The U.S. FDA approved cardiovascular drugs from 2011 to 2023: A medicinal chemistry perspective” (Eur J Med Chem, 2024)
Structures can show the parent of a compound that is named as a salt. Blank lines part the entries; values can stand above or below the compound they belong to.

Experiments:
[1] = Activation of Myosin S1 ATPase activity in bovine Cardio-myofibril
[2] = Elimination half life in cynomologus monkey; settings: cynomolgus monkey, in vivo
[3] = Plasma protein binding in cynomolgus monkey
[4] = target: T1, Type-2 angiotensin II receptor (Homo sapiens, UniProt P50052); assay: Inhibition of Angiotensin-2 receptor (unknown origin)
T1 sequence (P50052 whole entry): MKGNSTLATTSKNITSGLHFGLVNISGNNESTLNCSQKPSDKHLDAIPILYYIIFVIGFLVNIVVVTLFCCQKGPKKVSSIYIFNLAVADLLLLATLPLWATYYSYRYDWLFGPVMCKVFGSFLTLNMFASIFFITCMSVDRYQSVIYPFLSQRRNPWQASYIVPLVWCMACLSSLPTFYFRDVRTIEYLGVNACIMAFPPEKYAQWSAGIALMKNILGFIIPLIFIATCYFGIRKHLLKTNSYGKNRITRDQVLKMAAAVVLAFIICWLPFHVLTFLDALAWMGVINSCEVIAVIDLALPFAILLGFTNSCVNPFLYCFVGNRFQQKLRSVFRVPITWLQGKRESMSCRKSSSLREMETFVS

[5] = Inhibition of ApoB lipoprotein secretion in human HepG2 cells; assay type: functional; settings: read-out: ED50 (the source's name)
Rattus norvegicus = species on record: Rattus norvegicus; assay: Antithrombotic activity in fibrin-rich platelet-poor rat thrombin
P2Y purinoceptor 12 = P2Y purinoceptor 12 (Homo sapiens, UniProt Q9H244); assay: Binding affinity to human P2Y12 assessed as inhibition constant
Platelet = assay: Inhibition of thrombin-induced human platelet aggregation

Sequence of P2Y purinoceptor 12 (Q9H244 whole entry): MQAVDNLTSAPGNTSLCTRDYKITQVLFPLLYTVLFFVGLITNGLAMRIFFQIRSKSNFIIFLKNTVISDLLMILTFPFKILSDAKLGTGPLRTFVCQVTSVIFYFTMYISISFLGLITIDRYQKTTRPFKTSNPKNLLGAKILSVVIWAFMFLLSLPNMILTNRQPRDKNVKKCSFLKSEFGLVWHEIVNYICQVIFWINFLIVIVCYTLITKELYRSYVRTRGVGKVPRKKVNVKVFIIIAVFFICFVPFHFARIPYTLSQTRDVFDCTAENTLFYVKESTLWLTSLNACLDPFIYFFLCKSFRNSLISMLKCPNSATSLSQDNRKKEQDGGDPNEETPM

SMILES: O=C(NC1CCN(CCCCC2(C(=O)NCC(F)(F)F)c3ccccc3-c3ccccc32)CC1)c1ccccc1-c1ccc(C(F)(F)F)cc1 [LOMITAPIDE MESYLATE]
EC50 [5]: 0.8 nM

SMILES: O=C(NC[C@H]1CN(c2ccc(N3CCOCC3=O)cc2)C(=O)O1)c1ccc(Cl)s1 [RIVAROXABAN]
ED50 (Rattus norvegicus): 0.1 mg/kg

SMILES: CCOC(=O)N[C@@H]1CC[C@@H]2[C@@H](C1)C[C@H]1C(=O)O[C@H](C)[C@H]1[C@H]2/C=C/c1ccc(-c2cccc(F)c2)cn1 [VORAPAXAR]
IC50 (Platelet): 47 nM

More lines, now with the values ahead:

IC50 [1]: 300 nM
SMILES: CC(C)n1c(=O)cc(N[C@@H](C)c2ccccc2)[nH]c1=O

half-life [2]: 4.6 h | fraction unbound [3]: 0.06
SMILES: CCCCC(=O)N(Cc1ccc(-c2ccccc2-c2nnn[nH]2)cc1)[C@H](C(=O)O)C(C)C.CCOC(=O)[C@H](C)C[C@@H](Cc1ccc(-c2ccccc2)cc1)NC(=O)CCC(=O)O

IC50 [4]: 2.6 nM
SMILES: CCOc1nc2cccc(C(=O)OCc3oc(=O)oc3C)c2n1Cc1ccc(-c2ccccc2-c2noc(=O)[nH]2)cc1 [AZILSARTAN MEDOXOMIL]

Ki (P2Y purinoceptor 12): 4.3 nM
SMILES: CCCSc1nc(N[C@@H]2C[C@H]2c2ccc(F)c(F)c2)c2nnn([C@@H]3C[C@H](OCCO)[C@@H](O)[C@H]3O)c2n1 [TICAGRELOR]
